In patent US6960678B2, “Silanol enzyme inhibitors” (The Research Foundation of State University of New York, priority 1996, dated 2005):
Where two headings read alike, the source gives them in different places.

Experiments:
[1] = biological target: T1, HIV-protease enzyme (Human immunodeficiency virus type 1 group M subtype B, UniProt P04585); assay: HIV-protease enzyme inhibition (Ki); assay type: biochemical, HIV-1
T1 construct: tested against HIV-protease enzyme (Ki)

[2] = storage stability as solid or in solution (polymerization / oligomerization); assay type: physicochemical
From the text: The compounds are stable and can be stored for weeks or longer at room temperature without noticeable decomposition in either solid or solution form. In addition, there is no intrinsic toxicity associated with silicon (Friedberg, K. D. and Schiller, E., Handbook on Toxicity of Inorganic Compounds, Eds. Seiler H, G., and Sigel, H.; Marcel Dekker, New York, 1988, pp. 595-617).
The C2 symmetry of the HIV protease has led to the development of C2 symmetric inhibitors such as Merck's L-700, 417. The silanediol analog 9a was prepared from the commercially available dichlorodiphenylsilane. Treatment of this dichlorosilane with the enantiomerically pure lithium reagent 53b led to the symmetric diether 54 in 75% yield. Cleavage of the ethers and oxidation to the diacid was followed by preparation of the diamide 56. For this study, N-benzyl amides were used as the simplest first analog. Hydrolysis of diphenylsilane 56 to the silanediol 9a was effected by treatment with triflic acid in dichloromethane at 0° C. for ten to 30 minutes. Under these conditions, both phenyl groups on silicon are lost very rapidly. We believe that the intermediate formed is not a di-triflate, but is the spirocyclic intermediate 57. Addition of the triflic acid-derived intermediate to an aqueous phase (either acidic, buffered, or basic) serves to finish hydrolysis to the diol 9a. […]

[3] = biological target: T2, recombinant HIV-1 protease (Human immunodeficiency virus type 1 group M subtype B, UniProt P04585); assay: HIV-1 protease inhibition, cleavage of substrate polypeptide, HPLC-based detection; assay type: biochemical
T2 construct: recombinant HIV-1 protease
From the text: The standard test procedure for HIV-1 protease inhibition uses recombinant HIV-1 protease in an assay which monitors cleavage of a substrate polypeptide using an HPLC-based detection system. Proc. Nat. Acad. Sci. 86, 9752 (1989).

[4] = tested on: angiotensin-converting enzyme; conditions: Galardy and Kortylewicz 1985; cited from earlier work
[5] = tested on: HIV-1 virus; assay: antiviral cell culture assay (IC90); assay type: cell-based
[6] = HIV-protease enzyme, read-out: Ki

O=C(NCc1ccccc1)[C@H](Cc1ccccc1)C[Si](O)(O)C[C@@H](Cc1ccccc1)C(=O)NCc1ccccc1 [Compound 9a, Di-benzyl 2-(S)-6-(S)-dibenzyl-4,4-dihydroxy-4-sila-heptanediamide]
Ki [1]: 3160 nM | storage stability of the pure diol ([2]; as a solid or in deuterochloroform solution, for weeks): without polymerization | stability in DMSO ([2]; taken up in DMSO, one week): fully stable | IC50 [3]: 5600 nM

O=C(NCc1ccccc1)C(Cc1ccccc1)C[Si](O)(CC(Cc1ccccc1)C(=O)NCc1ccccc1)O[Si](O)(CC(Cc1ccccc1)C(=O)NCc1ccccc1)CC(Cc1ccccc1)C(=O)NCc1ccccc1 [Compound 60, 1,3-dihydroxy-1,1,3-3-tetra(3-[2-(S)-2-phenylmethylpropionyl])-disiloxane tetra(N-phenylmethylamide)]
Ki [1, 6]: 4670 nM

O=C(NCc1ccccc1)C(Cc1ccccc1)C[Si]1(CC(Cc2ccccc2)C(=O)NCc2ccccc2)O[Si](CC(Cc2ccccc2)C(=O)NCc2ccccc2)(CC(Cc2ccccc2)C(=O)NCc2ccccc2)O[Si](CC(Cc2ccccc2)C(=O)NCc2ccccc2)(CC(Cc2ccccc2)C(=O)NCc2ccccc2)O[Si](CC(Cc2ccccc2)C(=O)NCc2ccccc2)(CC(Cc2ccccc2)C(=O)NCc2ccccc2)O1 [Compound 61, 1,1,3,3,5,5,7,7-octa(3-[2-(S)-2-phenylmethylpropionyl)]-cyclotetrasiloxane octa(N-phenylmethylamide)]
Ki [1, 6]: 2300 nM

C[Si](C)(O)O [dimethylsilanediol]
inhibitor of angiotensin-converting enzyme [4]: inactive

CC(C)(C)NC(=O)[C@@H]1CN(Cc2cccnc2)CCN1C[C@@H](O)C[C@@H](Cc1ccccc1)C(=O)N[C@H]1c2ccccc2C[C@H]1O [indinavir, reference compound]
IC90 ([5]; Human immunodeficiency virus 1): 33 nM

Di-[1-(S)-(2,(R)-hydroxyindanyl)]2-(S)-6-(S)-dibenzyl-4,4-dihydroxy-4-sila-heptanediamide [Compound 9b]
Ki [1, 6]: 2.7 nM | IC90 [5]: 170 nM
